Patent US20230293519A1, “INTEGRIN INHIBITORS AND USES THEREOF IN COMBINATION WITH OTHER AGENTS” (Pliant Therapeutics, Inc., priority 2021, published 2023)

biological target: recombinant human integrin αvβ6 (Homo sapiens (Human), UniProt P06756+P18564); test: Solid phase integrin αvβ6 binding assay; conditions: IC50 presented in four ranges; read-out: αvβ6 Inhibition IC50 (nM) - range
Experimental: (§1) Microplates were coated with recombinant human integrin αvβ6 (2 µg/mL) in PBS (100 µL/well 25° C., overnight). The coating solution was removed, washed with wash buffer (0.05% Tween 20; 0.5 mM MnCl2; in 1x TBS). The plate was blocked with 200 µL/well of Block Buffer (1% BSA; 5% sucrose; 0.5 mM MnCl2; in 1x TBS) at 37° C. for 2 h. Dilutions of testing compounds and recombinant TGFβ1 LAP (0.67 µg/mL) in binding buffer (0.05% BSA; 2.5% sucrose; 0.5 mM MnCl2; in 1x TBS) were added. The plate was incubated for 2 hours at 25° C., washed, and incubated for 1 hour with Biotin-Anti-hLAP. Bound antibody was detected by peroxidase-conjugated streptavidin. The IC50 values for testing compounds were calculated by a four-parameter logistic regression.
The compounds tested were compound samples prepared according to procedures described in the Synthetic Examples section, with the stereochemical purity as indicated in the Examples.
as §1, with “A third series of exemplary compounds was selected for testing in the solid phase integrin αvβ6 binding assay. The compounds tested were compound samples prepared according to procedures described in the Synthetic Examples section, with the stereochemical purity as indicated in the Examples. As in Example B1, microplates” for “Microplates”

Sequence of recombinant human integrin αvβ6 (P06756 31-889): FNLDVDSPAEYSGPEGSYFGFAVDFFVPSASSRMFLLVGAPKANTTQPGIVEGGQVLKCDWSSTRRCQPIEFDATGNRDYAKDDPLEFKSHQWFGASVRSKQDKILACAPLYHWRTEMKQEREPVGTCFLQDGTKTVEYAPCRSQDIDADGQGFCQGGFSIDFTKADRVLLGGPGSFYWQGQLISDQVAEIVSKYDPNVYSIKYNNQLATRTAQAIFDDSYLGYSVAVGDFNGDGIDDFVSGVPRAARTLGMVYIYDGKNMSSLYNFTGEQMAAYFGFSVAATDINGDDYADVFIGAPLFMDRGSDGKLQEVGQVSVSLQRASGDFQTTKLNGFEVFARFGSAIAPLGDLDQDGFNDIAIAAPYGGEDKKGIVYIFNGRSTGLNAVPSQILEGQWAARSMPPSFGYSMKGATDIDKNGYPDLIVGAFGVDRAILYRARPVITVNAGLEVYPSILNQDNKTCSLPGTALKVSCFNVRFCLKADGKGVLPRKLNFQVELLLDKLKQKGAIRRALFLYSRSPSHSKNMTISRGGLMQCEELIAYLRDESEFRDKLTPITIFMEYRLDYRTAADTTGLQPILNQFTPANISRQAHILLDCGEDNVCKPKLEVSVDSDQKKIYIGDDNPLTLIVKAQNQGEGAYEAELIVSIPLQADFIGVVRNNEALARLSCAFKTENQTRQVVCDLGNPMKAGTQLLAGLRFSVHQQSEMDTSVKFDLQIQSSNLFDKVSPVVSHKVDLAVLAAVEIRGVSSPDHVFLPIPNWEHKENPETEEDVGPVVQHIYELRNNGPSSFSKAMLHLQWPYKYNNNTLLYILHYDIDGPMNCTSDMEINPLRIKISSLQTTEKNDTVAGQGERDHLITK
Sequence of recombinant human integrin αvβ6 (P06756 890-992 partner): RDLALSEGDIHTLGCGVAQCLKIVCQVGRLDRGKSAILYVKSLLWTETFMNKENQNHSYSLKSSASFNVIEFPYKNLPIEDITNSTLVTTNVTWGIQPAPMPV
Sequence of recombinant human integrin αvβ6 (P18564 22-707): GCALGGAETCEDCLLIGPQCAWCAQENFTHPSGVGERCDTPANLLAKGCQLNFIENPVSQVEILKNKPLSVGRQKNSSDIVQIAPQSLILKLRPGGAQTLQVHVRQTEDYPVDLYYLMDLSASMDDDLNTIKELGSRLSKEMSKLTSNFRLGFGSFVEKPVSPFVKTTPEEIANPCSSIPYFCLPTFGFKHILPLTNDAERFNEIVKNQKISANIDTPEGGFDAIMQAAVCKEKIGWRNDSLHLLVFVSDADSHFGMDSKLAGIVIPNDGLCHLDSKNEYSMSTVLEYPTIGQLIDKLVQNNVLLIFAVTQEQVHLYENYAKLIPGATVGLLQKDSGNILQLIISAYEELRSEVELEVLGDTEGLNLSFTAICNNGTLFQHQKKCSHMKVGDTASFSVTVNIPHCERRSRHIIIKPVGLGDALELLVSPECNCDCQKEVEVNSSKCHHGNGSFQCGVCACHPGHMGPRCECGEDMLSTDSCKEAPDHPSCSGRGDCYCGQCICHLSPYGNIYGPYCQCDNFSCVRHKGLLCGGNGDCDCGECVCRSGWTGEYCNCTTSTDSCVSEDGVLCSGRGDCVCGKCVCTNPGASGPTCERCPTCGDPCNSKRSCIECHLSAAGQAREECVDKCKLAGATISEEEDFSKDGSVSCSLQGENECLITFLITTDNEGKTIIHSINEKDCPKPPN

| Compound | IC50 [nM] |
| --- | --- |
| O=C(O)[C@H](CCN(CCCCc1ccc2c(n1)NCCC2)CC1CCO1)Nc1ncnc2ccccc12 (some centres unmarked) [compound 129] | < 50 |
| O=C(O)[C@H](CCN(CCCCc1ccc2c(n1)NCCC2)CC(CO)CO)Nc1ncnc2ccccc12 [compound 130] | < 50 |
| O=C(O)[C@H](CCN(CCCCc1ccc2c(n1)NCCC2)CCC(F)F)Nc1ncc(Br)cn1 [compound 131] | 50 to 250 |
| O=C(O)[C@H](CCN(CCCCc1ccc2c(n1)NCCC2)CCC(F)F)Nc1ncc(C(F)(F)F)cn1 [compound 132] | 50 to 250 |
| Cn1ncc2c(N[C@@H](CCN(CCCCc3ccc4c(n3)NCCC4)CCC(F)F)C(=O)O)ncnc21 [compound 133] | 50 to 250 |
| O=C(O)[C@H](CCN(CCCCc1ccc2c(n1)NCCC2)CCC(F)F)Nc1ccnc(C(F)(F)F)n1 [compound 134] | 50 to 250 |
| O=C(O)[C@H](CCN(CCCCc1ccc2c(n1)NCCC2)CCC(F)F)Nc1ccnc(C2CC2)n1 [compound 135] | 50 to 250 |
| Cn1ncc2c(N[C@@H](CCN(CCCF)CCCCc3ccc4c(n3)NCCC4)C(=O)O)ncnc21 [compound 136] | < 50 |
| O=C(O)[C@H](CCN(CCCF)CCCCc1ccc2c(n1)NCCC2)Nc1ncc(C(F)(F)F)cn1 [compound 137] | < 50 |
| N#Cc1cnc(N[C@@H](CCN(CCCCc2ccc3c(n2)NCCC3)CCOc2ccc(F)cc2)C(=O)O)nc1 [compound 138] | < 50 |
| O=C(O)[C@H](CCN(CCCCc1ccc2c(n1)NCCC2)CCOc1ccc(F)cc1)Nc1ncc(C(F)(F)F)cn1 [compound 139] | < 50 |
| CN(C)C(=O)CN(CCCCc1ccc2c(n1)NCCC2)CC[C@H](Nc1ncnc2c1cnn2C)C(=O)O [compound 140] | < 50 |
| CN(C)C(=O)CN(CCCCc1ccc2c(n1)NCCC2)CC[C@H](Nc1ncc(C(F)(F)F)cn1)C(=O)O [compound 141] | 50 to 250 |
| O=C(O)[C@H](CCN(CCCCc1ccc2c(n1)NCCC2)CC(F)F)Nc1cc(-c2ccccc2)ncn1 [compound 142] | > 1000 |
| O=C(O)[C@H](CCN(CCCCc1ccc2c(n1)NCCC2)CCOc1ccc(F)cc1)Nc1ncnc2[nH]ncc12 [compound 143] | 50 to 250 |
| O=C(O)[C@H](CCN(CCCCc1ccc2c(n1)NCCC2)CCOc1ccc(F)cc1)Nc1ncc(Br)cn1 [compound 144] | 50 to 250 |
| CN(C)C(=O)CN(CCCCc1ccc2c(n1)NCCC2)CC[C@H](Nc1ccnc(C(F)(F)F)n1)C(=O)O [compound 145] | < 50 |
| O=C(O)[C@H](CCN(CCCCc1ccc2c(n1)NCCC2)CC(F)F)Nc1ncc(C2CC2)cn1 [compound 146] | > 1000 |
| O=C(O)[C@H](CCN(CCCCc1ccc2c(n1)NCCC2)CC1(F)COC1)Nc1ncnc2ccccc12 [compound 147] | 50 to 250 |

test system: Type I Collagen gene Col1a1 expression; test: Precision cut lung slices of mice under acute bleomycin exposure; type: cell-based, mouse; conditions: slices cultured 3 days; integrin inhibitors at IC50, pan-αv and ALK5 inhibitors at 10x IC50
Experimental: Mice (C57BL/6) were administered 3 U/kg of bleomycin (Teva Pharmaceuticals; North Wales, PA) on day 0 via oropharyngeal aspiration while under anesthesia. On day 14, precision cut lung slices were obtained. Following euthanization, 2% low gelling temp agarose was injected into the mouse lungs via the trachea. […] The lobes were then subjected to precision slicing to obtain samples for culture using a microtome (Compresstome VF-300-0Z, Precisionary; Greenville, NC). Individual slices were distributed in a multiwell culture plate and cultured for 3 days under control (DMSO) and test compound conditions.

| Compound | Type I Collagen gene Col1a1 expression vs DMSO control |
| --- | --- |
| CC(C)(C)c1cc(Br)cc(C(CC(=O)O)NC(=O)CNC(=O)c2cc(O)cc(NC3=NCC(O)CN3)c2)c1 [second pan-αv small molecule inhibitor, (3S)-N-[3-hydroxy-5-[(1,4,5,6-tetrahydro-5-hydroxy-2-pyrimidinyl)amino]benzoyl]glycyl-3-[3-bromo-5-(1,1-dimethylethyl)phenyl]-(3-alanine] | reduced |
